Reference: patent US11040035B2, “3-oxo-2,6-diphenyl-2,3-dihydropyridazine-4-carboxamides” (BAYER PHARMA AKTIENGESELLSCHAFT, priority 2016, dated 2021)
Like-named read-outs stand apart in the source and are kept apart here.

Legend:
AHR [1] = target: T1, AHR (Homo sapiens, UniProt P35869); assay: In vitro assay 2: agonism in human cell line (transactivation assay)
T1 sequence (P35869 11-848): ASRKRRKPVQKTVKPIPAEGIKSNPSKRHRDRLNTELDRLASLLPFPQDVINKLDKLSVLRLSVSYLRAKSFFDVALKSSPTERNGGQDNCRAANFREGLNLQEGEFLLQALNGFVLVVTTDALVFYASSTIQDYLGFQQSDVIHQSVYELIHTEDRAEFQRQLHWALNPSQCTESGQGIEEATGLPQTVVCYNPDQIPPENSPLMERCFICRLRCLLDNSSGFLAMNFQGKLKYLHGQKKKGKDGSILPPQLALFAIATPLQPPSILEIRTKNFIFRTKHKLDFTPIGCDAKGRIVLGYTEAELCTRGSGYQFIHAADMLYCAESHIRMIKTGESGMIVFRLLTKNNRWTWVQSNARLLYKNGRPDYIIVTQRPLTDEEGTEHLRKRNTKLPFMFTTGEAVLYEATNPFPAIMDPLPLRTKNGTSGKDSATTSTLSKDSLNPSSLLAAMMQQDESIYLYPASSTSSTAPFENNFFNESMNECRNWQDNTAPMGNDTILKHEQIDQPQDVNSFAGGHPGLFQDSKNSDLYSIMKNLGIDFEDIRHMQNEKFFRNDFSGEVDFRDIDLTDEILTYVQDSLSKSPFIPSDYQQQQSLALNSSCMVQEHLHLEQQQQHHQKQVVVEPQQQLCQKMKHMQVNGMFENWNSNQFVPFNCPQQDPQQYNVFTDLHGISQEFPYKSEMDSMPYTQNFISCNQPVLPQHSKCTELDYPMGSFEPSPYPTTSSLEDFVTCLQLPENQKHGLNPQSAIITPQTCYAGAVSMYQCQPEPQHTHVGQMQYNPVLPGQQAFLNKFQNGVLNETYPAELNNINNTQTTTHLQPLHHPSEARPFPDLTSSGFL

[2] = test system: AHR-regulated gene CYP1A1; assay: In vitro assay 3: AHR-regulated CYP1A1 expression in human cell line (U937, qPCR)
Description: In Vitro Assay 3: AHR-Regulated CYP1A1 Expression in Human Cell Line
To assess the AHR inhibitory activity of the substances described in this application, the ability thereof to antagonise ligand-induced AHR gene regulation in a dose-dependent manner was quantified. For this purpose, quantitative PCR analysis was used to determine expression of the AHR-regulated gene CYP1A1 in a human monocytic U937 cell line upon stimulation with 200 μM KA in the presence and absence of AHR inhibitor. U937 cells were sown at a concentration of 2×10^5 cells/well in 100 ul of growth medium (RPMI 1640, 20% FCS) in 96-well microtitre plates. CYP1A1 expression was induced with 200 μM KA (positive control) in the presence or absence of the substances for 6 hours. Human U937 cells were typically incubated with eight different concentrations of the substances (1 nM, 3 nM, 10 nM, 30 nM, 100 nM, 300 nM, 1 μM and 3 μM) and analyzed in duplicate on the same microtitre plate. After stimulation, cells were lysed with Nucleic Acid Lysis Solution (#4305895, Applied Biosystems) and RNA was isolated using the 6100 Nucleic Acid Preparation Station (Applied Biosystems) and reverse-transcribed to cDNA using SuperScript VILO cDNA synthesis kit (#11754-250, Invitrogen). Unstimulated cells were used as the negative control. Taqman probes for human CYP1A1 (Hs01054797_g1) and human HPRT (Hs02800695_m1) were used to analyze fold expression of CYP1A1 of HPRT. Quantitation was performed on a Taqman SDS7900HT.

AHR [3] = target: T1, AHR; assay: In vitro assay 1: antagonism in human cell line (transactivation assay, kynurenic acid prestimulated); conditions: Assay 1: AHR-luc Hum Antagonism IC50 [M], 150 μM kynurenic acid, 20 hours, firefly luciferase
[4] = read-out: Assay 2: AHR-luc Hum Agonism IC50, no kynurenic acid, 20 hours, firefly luciferase
[5] = Homo sapiens, U-937, 6 h, read-out: Assay 3: Hum CYP1A1 Antagonism IC50 [M], U937 cells, 200 μM KA, 6 hours, qPCR
[6] = Assay 2: AHR-luc Hum Agonism IC50 [M], no kynurenic acid, 20 hours, firefly luciferase
[7] = read-out: Assay 3: Hum CYP1A1 Antagonism IC50, U937 cells, 200 μM KA, 6 hours, qPCR

| Structure (SMILES) | IC50 (AHR [1]; [4]) [M] | IC50 [2, 5] [M] | IC50 (AHR [3]) [M] | IC50 (AHR [1]; [6]) [M] | IC50 [2, 7] [M] |
| --- | --- | --- | --- | --- | --- |
| O=C(N[C@H]1CC[C@@H]1O)c1cc(-c2ccc(Cl)cc2)nn(-c2cccc(F)c2)c1=O (single isomer, unassigned) [Example 336, (+)-6-(4-chlorophenyl)-2-(3-fluorophenyl)-N-(trans-2-hydroxycyclobutyl)-3-oxo-2,3-dihydropyridazine-4-carboxamide] | > 2e-05 | 2e-06 | 4.02e-08 | – | – |
| O=C(N[C@@H]1COC[C@@H]1O)c1cc(-c2ccc(C(F)(F)F)cc2)nn(-c2cccc(F)c2)c1=O (single isomer, unassigned) [Example 344, (+)-2-(3-fluorophenyl)-N-(cis-4-hydroxytetrahydrofuran-3-yl)-3-oxo-6-[4-(trifluoromethyl)phenyl]-2,3-dihydropyridazine-4-carboxamide] | – | – | 5.84e-09 | > 2e-05 | 1.85e-08 |
| O=C(N[C@@H]1COC[C@@H]1O)c1cc(-c2ccc(C(F)(F)F)cc2)nn(-c2cccc(F)c2)c1=O (single isomer, unassigned) [Example 345, (−)-2-(3-fluorophenyl)-N-(cis-4-hydroxytetrahydrofuran-3-yl)-3-oxo-6-[4-(trifluoromethyl)phenyl]-2,3-dihydropyridazine-4-carboxamide] | > 2e-05 | – | 1.58e-08 | – | 5.4e-08 |
| CC(CCO)NC(=O)c1cc(-c2ccc(C(F)(F)F)cc2)nn(-c2cccc(F)c2)c1=O (single isomer, unassigned; (+)) [Example 254, (+)-2-(3-Fluorophenyl)-N-(4-hydroxybutan-2-yl)-3-oxo-6-[4-(trifluoromethyl)phenyl]-2,3-dihydropyridazine-4-carboxamide] | – | – | 1.1e-08 | > 2e-05 | 3.01e-08 |
| O=C(NCC(O)C(F)F)c1cc(-c2ccc(C(F)(F)F)cc2)nn(-c2cccc(F)c2)c1=O (single isomer, unassigned; (+)) [Example 328, (+)-N-(3,3-difluoro-2-hydroxypropyl)-2-(3-fluorophenyl)-3-oxo-6-[4-(trifluoromethyl)phenyl]-2,3-dihydropyridazine-4-carboxamide] | > 2e-05 | – | 4.47e-08 | – | 9.53e-08 |
| O=C(NC(CO)C1CCC1)c1cc(-c2ccc(Cl)cc2)nn(-c2cccc(F)c2)c1=O (single isomer, unassigned; (-)) [Example 211, (−)-6-(4-Chlorophenyl)-N-(1-cyclobutyl-2-hydroxyethyl)-2-(3-fluorophenyl)-3-oxo-2,3-dihydropyridazine-4-carboxamide] | > 2e-05 | 2.23e-08 | 1.66e-08 | – | – |
| O=C(NCC(O)C(F)F)c1cc(-c2ccc(Cl)cc2)nn(-c2cccc(F)c2)c1=O (single isomer, unassigned; (-)) [Example 222, (−)-6-(4-Chlorophenyl)-N-(3,3-difluoro-2-hydroxypropyl)-2-(3-fluorophenyl)-3-oxo-2,3-dihydropyridazine-4-carboxamide] | – | 9.14e-08 | 4.87e-08 | > 2e-05 | – |
| CC(CCO)NC(=O)c1cc(-c2ccc(C(F)(F)F)cc2)nn(-c2cccc(F)c2)c1=O (single isomer, unassigned; (-)) [Example 255, (−)-2-(3-Fluorophenyl)-N-(4-hydroxybutan-2-yl)-3-oxo-6-[4-(trifluoromethyl)phenyl]-2,3-dihydropyridazine-4-carboxamide] | > 2e-05 | – | 1.09e-07 | – | 3.89e-07 |
| O=C(NCC(O)C(F)F)c1cc(-c2ccc(C(F)(F)F)cc2)nn(-c2cccc(F)c2)c1=O (single isomer, unassigned; (-)) [Example 327, (−)-N-(3,3-difluoro-2-hydroxypropyl)-2-(3-fluorophenyl)-3-oxo-6-[4-(trifluoromethyl)phenyl]-2,3-dihydropyridazine-4-carboxamide] | – | – | 1.66e-08 | > 2e-05 | 1.38e-08 |
| CC(C)(O)C(NC(=O)c1cc(-c2ccc(C(F)(F)F)cc2)nn(-c2cccc(F)c2)c1=O)C(F)(F)F (single isomer, unassigned; (-)) [Example 394, (−)-2-(3-fluorophenyl)-3-oxo-N-(1,1,1-trifluoro-3-hydroxy-3-methylbutan-2-yl)-6-[4-(trifluoromethyl)phenyl]-2,3-dihydropyridazine-4-carboxamide] | – | 9.5e-08 | 2.8e-08 | > 2e-05 | – |
| Cc1ccc(-c2cc(C(=O)NCC(O)C(C)C)c(=O)n(-c3cccc(F)c3)n2)cc1 (single isomer, unassigned; enantiomer 1) [Example 11, 2-(3-Fluorophenyl)-N-(2-hydroxy-3-methylbutyl)-6-(4-methylphenyl)-3-oxo-2,3-dihydropyridazine-4-carboxamide, enantiomer 1] | – | 1.71e-07 | 7.94e-08 | > 2e-05 | – |
| Cc1ccc(-c2cc(C(=O)N[C@H](CO)C(C)C)c(=O)n(-c3cccc(F)c3)n2)cc1 [Example 2, 2-(3-Fluorophenyl)-N-[(2S)-1-hydroxy-3-methylbutan-2-yl]-6-(4-methylphenyl)-3-oxo-2,3-dihydropyridazine-4-carboxamide] | – | 1.36e-08 | 1.03e-08 | > 2e-05 | – |
| CC(C)[C@@H](CO)NC(=O)c1cc(-c2ccc(Cl)cc2)nn(-c2cccc(F)c2)c1=O [Example 20, 6-(4-Chlorophenyl)-2-(3-fluorophenyl)-N-[(2S)-1-hydroxy-3-methylbutan-2-yl]-3-oxo-2,3-dihydropyridazine-4-carboxamide] | – | 1.22e-08 | 1.18e-08 | > 2e-05 | – |
| O=C(NCC(O)C(F)(F)F)c1cc(-c2ccc(Cl)cc2)nn(-c2cccc(F)c2)c1=O (stereo not drawn) [Example 25, 6-(4-Chlorophenyl)-2-(3-fluorophenyl)-3-oxo-N-(3,3,3-trifluoro-2-hydroxypropyl)-2,3-dihydropyridazine-4-carboxamide] | – | 5.86e-08 | 3.75e-08 | > 2e-05 | – |
| CC(C)C[C@@H](CO)NC(=O)c1cc(-c2ccc(Cl)cc2)nn(-c2cccc(F)c2)c1=O [Example 37, 6-(4-Chlorophenyl)-2-(3-fluorophenyl)-N-[(2S)-1-hydroxy-4-methylpentan-2-yl]-3-oxo-2,3-dihydropyridazine-4-carboxamide] | – | 1.56e-07 | 1.31e-07 | > 2e-05 | – |
| CC(C)[C@@H](CO)NC(=O)c1cc(-c2ccc(Cl)cc2)nn(-c2cc(F)cc(F)c2)c1=O [Example 43, 6-(4-Chlorophenyl)-2-(3,5-difluorophenyl)-N-[(2S)-1-hydroxy-3-methylbutan-2-yl]-3-oxo-2,3-dihydropyridazine-4-carboxamide] | – | 1.08e-08 | 4.89e-09 | > 2e-05 | – |
| C[C@@H](CO)NC(=O)c1cc(-c2ccc(Cl)cc2)nn(-c2cc(F)cc(F)c2)c1=O [Example 47, 6-(4-Chlorophenyl)-2-(3,5-difluorophenyl)-N-[(2S)-1-hydroxypropan-2-yl]-3-oxo-2,3-dihydropyridazine-4-carboxamide] | – | 2.52e-08 | 3.08e-08 | > 2e-05 | – |
| Cc1ccc(-c2cc(C(=O)N[C@H](CO)C(C)C)c(=O)n(-c3cc(F)cc(F)c3)n2)cc1 [Example 51, 2-(3,5-Difluorophenyl)-N-[(2S)-1-hydroxy-3-methylbutan-2-yl]-6-(4-methylphenyl)-3-oxo-2,3-dihydropyridazine-4-carboxamide] | – | 1.15e-09 | 4.16e-09 | > 2e-05 | – |
| Cc1ccc(-c2cc(C(=O)N[C@@H](C)CO)c(=O)n(-c3cc(F)cc(F)c3)n2)cc1 [Example 55, 2-(3,5-Difluorophenyl)-N-[(2S)-1-hydroxypropan-2-yl]-6-(4-methylphenyl)-3-oxo-2,3-dihydropyridazine-4-carboxamide] | – | 1.54e-08 | 1.8e-08 | > 2e-05 | – |
| O=C(NC(CO)C(F)(F)F)c1cc(-c2ccc(Cl)cc2)nn(-c2cccc(F)c2)c1=O (stereo not drawn) [Example 97, 6-(4-Chlorophenyl)-2-(3-fluorophenyl)-3-oxo-N-(1,1,1-trifluoro-3-hydroxypropan-2-yl)-2,3-dihydropyridazine-4-carboxamide] | – | 1.63e-08 | 1.5e-08 | > 2e-05 | – |
| O=C(N[C@H]1CCC[C@H]1O)c1cc(-c2ccc(Cl)cc2)nn(-c2cccc(F)c2)c1=O [Example 111, 6-(4-Chlorophenyl)-2-(3-fluorophenyl)-N-[(1S,2R)-2-hydroxycyclopentyl]-3-oxo-2,3-dihydropyridazine-4-carboxamide] | – | 2.91e-08 | 2.03e-08 | > 2e-05 | – |
